Reference: US20210380722A1, “COMPOSITIONS AND METHODS FOR THE TREATMENT OF MAJOR DEPRESSIVE DISORDER” (Snake River Bioscience, Inc., priority 2019, published 2021)

How the values were obtained:
wildtype mice [1] = experiment: C16-ceramide loaded plasma or exosomes injected i.v. into wildtype mice; assay type: in vivo; settings: plasma or exosomes of untreated mice loaded with 2 μM C16-ceramide, FIG. 4e
Description: Plasma or exosomes were loaded with C16 ceramide or deuterated C16 ceramide (Avanti Polar Lipids, USA) by incubation of purified exosomes with 2 μM C16 ceramide or 2 deuterated C16 ceramide in 100 μL PBS for 60 min at 37° C. Plasma samples were directly injected i.v. into healthy mice. Exosomes were centrifuged again at 100,000×g for 70 min, the supernatant was discarded, resuspended in PBS and injected i.v. into healthy mice.
For BrdU staining, mice were injected with BrdU 4 times, once every 2 h. Mice were sacrificed 24 h after the first injection and brains were prepared as above. […]
Behavioral testing was performed between 3:00 p.m. and 6:00 p.m. under diffuse indirect room light. […] The time was recorded during which the mice explored a new environment before they began eating. […] The time that the mouse spent in each of the separate compartments was recorded. […] In the coat state test, the appearance of the coat (groomed vs unkempt coat) was scored on the head, neck, back, and ventrum with either a zero for normal status or a 1 for unkempt status. […] After 24 h the mice were again placed in a water-filled cylinder for 6 min, and the time of mobility or immobility during the last 4 min of the second trial was recorded. […]

sphingomyelin synthases = settings: direct inhibition of sphingomyelin synthases; cited from earlier work
hippocampal neurons = settings: cited from earlier work; for autophagy: Gulbins et al., Molecular Psychiatry (2018)
untreated mice = experiment: high dose of corticosterone in untreated mice, symptoms of major depression after 24 h; assay type: in vivo; settings: 1 mg/kg, data not shown
Description: To exclude the possibility that investigators were measuring the effects of corticosterone that might have remained in the plasma of these mice, untreated mice were injected with a high dose of corticosterone (1 mg/kg) and the presence of biochemical and behavioral symptoms of major depression after 24 h were assessed.

wildtype mice [2] = experiment: ceramide concentrations in exosomes from blood plasma of stressed mice (mass spectrometry, kinase assay); assay type: in vivo; settings: corticosterone via drinking water 120 mg/L for 7 days; FIG. 1c
Description: Corticosterone (Sigma, St. Louis, Mo.) was administered to mice via the drinking water at 120 mg/L for 7 days. In the chronic unpredictable stress model (CUS), the mice were challenged with unpredictable environmental stress for 8 days, i.e., a reversal of the light/dark cycle, 3 h of 45° tilting of the cage twice each week, shaking at 125 rpm, food deprivation for 14 h, predator sounds (15 min) or wet cages (1 h) with two forms of stress per day in a randomized (unpredictable) order. Blood was collected from the heart into heparin-coated needles and tubes immediately after sacrifice by cervical dislocation. Blood plasma was centrifuged at 3500 rpm for 5 min at 4° C. in an Eppendorf centrifuge. […]
10 μL of blood plasma or of resuspended exosomes (corresponding to 50 μL plasma) was added to 190 μL H2O and extracted in 600 μL CHCl3:CH3OH:1N HCl (100:100:1, v/v/v). […] Ceramide amounts were determined by comparison with a standard curve; C16 to C24 ceramides were used as substrates.
Samples were subjected to lipid extraction with 1.5 mL methanol/chloroform (2:1, v:v). […] Dried residues were reconstituted in 200 μL of a 95:5 (v:v) mixture of high-performance liquid chromatography (HPLC) eluents B:A (see below), thoroughly vortexed for 10 min at 1,500 rpm, centrifuged at 2,200×g for 10 min at 4° C., and subjected to mass spectrometric sphingolipid quantification. […]

CCCCCCCCCCCCC/C=C/[C@@H](O)[C@H](CO)NC(=O)CCCCCCCCCCCCCCC [C16-ceramide, C16 ceramide]
induction of MDD (behavioral changes and neuronal proliferation) (wildtype mice [1]): sufficient to induce MDD within 24 h

S=C(S)OC1CC2CC1C1CCCC21 (centres unmarked) [D609]
stress-induced MDD (sphingomyelin synthases): rapid reversal of stress-induced MDD
autophagy (hippocampal neurons): activation of autophagy
ceramide in the endoplasmic reticulum (ER) (hippocampal neurons; direct inhibition of sphingomyelin synthases): rapid accumulation of ceramide in the ER

CN(C)CCC=C1c2ccccc2CCc2ccccc21 [amitriptyline]
autophagy (hippocampal neurons): induce autophagy in hippocampal neurons

CNCCC(Oc1ccc(C(F)(F)F)cc1)c1ccccc1 (centres unmarked) [fluoxetine]
autophagy (hippocampal neurons): induce autophagy in hippocampal neurons

C[C@]12C[C@H](O)[C@H]3[C@@H](CCC4=CC(=O)CC[C@@]43C)[C@@H]1CC[C@@H]2C(=O)CO [glucocorticosterone, Corticosterone]
induction of MDD (biochemical and behavioral symptoms of major depression) (untreated mice): not sufficient to induce MDD
ceramide concentrations in exosomes in the blood plasma (wildtype mice [2]): marked increase in ceramide concentrations
